Results from patent publication US7449461B2, “Benzathiazol-acetamides” (Hoffmann-La Roche Inc., priority 2004, dated 2008).

Columns and labels:
[1] = molecular target: T1, human adenosine A2A receptor (Homo sapiens, UniProt P29274); experiment: [3H]-SCH-58261 binding assay on human adenosine A2A receptor membranes (SPA); conditions: recombinant receptor expressed in CHO cells, radioligand [3H]-SCH-58261 1 nM, Ki by Cheng-Prussoff equation from IC50; for Ki: read-out: hA2 (pKi) (converted)
T1 construct: expressed in transfected cells; host or cells: CHO cells, Semliki Forest virus expression system; washed membrane preparation
Method: Human Adenosine A2A Receptor
The human adenosine A2A receptor was recombinantly expressed in Chinese hamster ovary (CHO) cells using the semliki forest virus expression system. Cells were harvested, washed twice by centrifugation, homogenized and again washed by centrifugation. The final washed membrane pellet was suspended in a Tris (50 mM) buffer containing 120 mM NaCl, 5 mM KCl, 2 mM CaCl2 and 10 mM MgCl2 (pH 7.4) (buffer A). The [^3H]-SCH-58261 (Dionisotti et al., 1997, Br J Pharmacol 121, 353; 1 nM) binding assay was carried out in 96-well plates in the presence of 2.5 μg of membrane protein, 0.5 mg of Ysi-poly-1-lysine SPA beads and 0.1 U adenosine deaminase in a final volume of 200 μl of buffer A. Non-specific binding was defined using xanthine amine congener (XAC; 2 μM). Compounds were tested at 10 concentrations from 10 μM-0.3 nM. All assays were conducted in duplicate and repeated at least two times. Assay plates were incubated for 1 hour at room temperature before centrifugation and then bound ligand determined using a Packard Topcount scintillation counter. IC50 values were calculated using a non-linear curve fitting program and Ki values calculated using the Cheng-Prussoff equation.

T1 sequence (P29274 whole entry): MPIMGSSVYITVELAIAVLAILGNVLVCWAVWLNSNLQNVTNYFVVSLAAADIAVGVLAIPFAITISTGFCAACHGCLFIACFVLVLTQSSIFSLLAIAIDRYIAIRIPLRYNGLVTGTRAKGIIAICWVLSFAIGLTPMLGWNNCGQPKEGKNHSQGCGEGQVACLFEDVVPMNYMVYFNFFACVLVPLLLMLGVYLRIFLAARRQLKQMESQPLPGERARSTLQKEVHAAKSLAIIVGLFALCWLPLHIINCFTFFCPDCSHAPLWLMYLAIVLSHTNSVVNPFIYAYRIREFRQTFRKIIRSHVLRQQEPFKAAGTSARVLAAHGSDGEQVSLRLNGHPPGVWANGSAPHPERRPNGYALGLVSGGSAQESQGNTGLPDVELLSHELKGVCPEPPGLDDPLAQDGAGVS

melting point | Ki [1] | hA2 (pKi) [1] | SMILES
195 to 197 °C | 20 nM |  | COc1ccc(N2CCOCC2)c2sc(NC(=O)C(C)C34CCC(CC3)O4)nc12 (racemic) [Example 7, (rac)-N-(4-Methoxy-7-morpholin-4-yl-benzothiazol-2-yl)-2-(7-oxa-bicyclo[2.2.1]hept-1-yl)-propionamide]
168 to 171 °C | 6.31 nM |  | COc1ccc(N2CCOCC2)c2sc(NC(=O)C[C@H]3CC[C@@H](O)C3)nc12 (single isomer, unassigned) [Example 3, (−)-(cis)-2-(3-Hydroxy-cyclopentyl)-N-(4-methoxy-7-morpholin-4-yl-benzothiazol-2-yl)-acetamide]
167 to 170 °C |  | 8.2 | COc1ccc(N2CCOCC2)c2sc(NC(=O)C[C@H]3CC[C@@H](O)C3)nc12 (single isomer, unassigned) [Example 4, (+)-(cis)-2-(3-Hydroxy-cyclopentyl)-N-(4-methoxy-7-morpholin-4-yl-benzothiazol-2-yl)-acetamide]
212 to 216 °C | 6.31 nM |  | COc1ccc(N2CCOCC2)c2sc(NC(=O)C[C@H]3CC[C@@H](O)CC3)nc12 [Example 5, (cis)-2-(4-Hydroxy-cyclohexyl)-N-(4-methoxy-7-morpholin-4-yl-benzothiazol-2-yl)-acetamide]
190 to 192 °C | 3.16 nM |  | COc1ccc(N2CCOCC2)c2sc(NC(=O)C[C@H]3CC[C@H](O)CC3)nc12 [Example 6, (trans)-2-(4-Hydroxy-cyclohexyl)-N-(4-methoxy-7-morpholin-4-yl-benzothiazol-2-yl)-acetamide]

SMILES | melting point | Ki [1] | hA2 (pKi) [1]
COc1ccc(N2CCOCC2)c2sc(NC(=O)C[C@H]3CC[C@@H](OC(C)=O)C3)nc12 (single isomer, unassigned) [Example 1, (cis)-2-(3-Acetoxy-cyclopentyl)-N-(4-methoxy-7-morpholin-4-yl-benzothiazol-2-yl)-acetamide] | 171 to 172 °C | 10 nM | 
COc1ccc(N2CCOCC2)c2sc(NC(=O)C[C@H]3CC[C@@H](OC(C)=O)C3)nc12 (single isomer, unassigned) [Example 2, (cis)-2-(3-Acetoxy-cyclopentyl)-N-(4-methoxy-7-morpholin-4-yl-benzothiazol-2-yl)-acetamide] | 172 to 173 °C | 6.31 nM | 
